Data on 11 compounds can be found in ChEMBL document CHEMBL1151603, “Unsymmetrically substituted guanidines as potent histamine H3-receptor antagonists” (Bioorg Med Chem Lett, 1994).

What is called Ki is the equilibrium dissociation constant of an inhibitor or competing ligand from its target. Read a high Ki as a looser hold on the target.

Each structure is given as a SMILES string.

Experiment [1] has as its target T1, Histamine H3 receptor (Cavia porcellus, UniProt Q9JI35). Kind of experiment: Antagonistic activity for Histamine H3 receptor binding in guinea pig.
Experiment [2] has as its target T1, Histamine H3 receptor. Briefly: Antagonistic activity for Histamine H3 receptor on electrically evoked guinea-pig ileum contraction. Format: functional, tissue-based.

T1 sequence (Q9JI35 whole entry): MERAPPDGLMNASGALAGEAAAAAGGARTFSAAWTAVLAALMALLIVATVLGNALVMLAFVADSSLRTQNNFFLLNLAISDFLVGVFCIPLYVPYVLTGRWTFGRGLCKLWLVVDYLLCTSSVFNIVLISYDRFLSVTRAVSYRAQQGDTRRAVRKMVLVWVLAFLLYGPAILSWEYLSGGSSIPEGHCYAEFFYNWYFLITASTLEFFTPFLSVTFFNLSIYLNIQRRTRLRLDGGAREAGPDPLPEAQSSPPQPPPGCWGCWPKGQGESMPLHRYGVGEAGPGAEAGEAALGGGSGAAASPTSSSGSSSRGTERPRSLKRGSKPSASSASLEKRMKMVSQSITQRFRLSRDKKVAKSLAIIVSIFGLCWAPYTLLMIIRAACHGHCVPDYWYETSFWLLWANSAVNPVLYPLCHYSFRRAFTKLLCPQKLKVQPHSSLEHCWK

For the compound `O=C(N/C(=N/CC1CCCCC1)NCCCc1c[nH]cn1)OCc1ccccc1`, the Ki was 13 nM at Histamine H3 receptor [1] and 12.6 nM at Histamine H3 receptor [2]. Take `CC(C)(C)OC(=O)N/C(=N/CC1CCCCC1)NCCCc1c[nH]cn1`: the Ki is 9.5 nM at Histamine H3 receptor [1] and 10 nM at Histamine H3 receptor [2]. For the compound `N#CN=C(NCCCc1cnc[nH]1)NCC1CCCCC1`, the inhibition constant Ki at Histamine H3 receptor [1] is 22 nM; at Histamine H3 receptor [2], 20 nM.

As for `N=C(NCCCCc1c[nH]cn1)NC1CCCCC1`, the inhibitory constant (Ki) at Histamine H3 receptor [1] and on Histamine H3 receptor [2] was 5.01 nM in each case.

For `S=C(NC1CCCCC1)N1CCC(c2cnc[nH]2)CC1` [THIOPERAMIDE], the inhibitory constant (Ki) at Histamine H3 receptor [2] was 3.98 nM. That is a single-digit nanomolar value. On to `N=C(NCCc1ccccc1)NCCc1cnc[nH]1`, for which the Ki at Histamine H3 receptor [1] was 110 nM; at Histamine H3 receptor [2], 100 nM. In the case of `N=C(NCCCc1c[nH]cn1)NCC1CCCCC1`, the Ki on Histamine H3 receptor [1] was 0.74 nM; on Histamine H3 receptor [2] it was 0.794 nM. The corresponding values for `CC(C)(C)OC(=O)N/C(=N\CCCc1c[nH]cn1)NCc1ccc(I)cc1` are 12 nM and 12.6 nM. On the same counts, the results for `CC(C)(C)OC(=O)N/C(=N/C1CCCCC1)NCCCCc1c[nH]cn1` are 7 nM and 6.31 nM. As to `N=C(NCCCc1c[nH]cn1)NCc1ccc(I)cc1`, the Ki on Histamine H3 receptor [1] is 1.6 nM; at Histamine H3 receptor [2], 1.58 nM. On to `CCOC(=O)N/C(=N/CC1CCCCC1)NCCCc1c[nH]cn1`, for which the Ki is 36 nM on Histamine H3 receptor [1] and 39.8 nM on Histamine H3 receptor [2].
